# Data from patent US5744600A, “Phosphonomethoxy carbocyclic nucleosides and nucleotides” (Institute of Organic Chemistry and Biochemistry of the …, priority 1994, dated 1998).
# Like-named read-outs stand apart in the source and are kept apart here.
# Experiments:
# [1] = tested on: herpes simplex virus Type 1 (HSV-1) [BW^s strain]; test: HSV-1 plaque reduction assay in vero cells; type: cell-based; conditions: Human alphaherpesvirus 1, Table II, racemic series, 48 hour incubation, read-out: HSV-1 in vitro antiviral activity (IC50)
# Experimental: (§1) The antiviral activity of compounds of the invention, against both herpes viruses and human immunodeficiency virus (HIV), are presented in Table II. In Table II, the numbers in parenthesis in the columns reporting HIV activity represent the TD50, that is, the dosage at which toxic effects are observed in 50% of the population of cells tested.
# (§2) The compounds were evaluated for antiviral activity in vitro by a standard plaque reduction assay. Experiments were conducted with vero cells (African Green Monkey Kidney cells) infected with herpes simplex virus Type 1 (HSV-1) [BW^s strain, C. D. Sibrack, et al., Infect. Disc., 1982, 146, 673] and herpes simplex virus Type 2 (HSV-2) [G strain, obtained from American Tissue Culture Collection, Rockville, Md.] and with MRC-5 cells (human embryonic lung (diploid) cells) infected with human cytomegalovirus (HCMV) [AD169 strain, obtained from American Tissue Culture Collection, Rockville, Md].
# (§3) Briefly, confluent cell monolayers in 24-well plates were infected with 3-50 plaque-forming units of virus in 100 μl of phosphate-buffered saline. After a 1 hour adsorption period, residual inoculum was replaced with 1 mL of the appropriate dilution of the test compound which had been freshly prepared in Eagle's minimal essential medium ("EMEM") containing 10% fetal bovine serum. After a 48 hour incubation period at 37° C. in a 5% CO2 atmosphere, cell monolayers were fixed and stained with Carbol fuchsin and plaques were counted. The antiviral potency of the compound was determined by IC50, the inhibitory concentration necessary to reduce the number of plaques by 50% of those in the virus control cultures.
# [2] = tested on: herpes simplex virus Type 2 (HSV-2) [G strain]; test: HSV-2 plaque reduction assay in vero cells; type: cell-based; conditions: Human alphaherpesvirus 2, Table II, racemic series, 48 hour incubation, read-out: HSV-2 in vitro antiviral activity (IC50)
# Experimental: as §1, §2, §3
# [3] = tested on: human cytomegalovirus (HCMV) [AD169 strain]; test: HCMV plaque reduction assay in MRC-5 cells; type: cell-based; conditions: Human betaherpesvirus 5, AD169, MRC5, Table II, racemic series, 48 hour incubation, read-out: HCMV in vitro antiviral activity (IC50)
# Experimental: as §2, §3
# [4] = tested on: Murine leukemia virus (MuLV); test: MuLV UV-XC plaque assay in SC-1 cells; type: cell-based; conditions: SC1, Table II, racemic series, read-out: MuLV in vitro antiviral activity (IC50)
# Experimental: The compounds were evaluated for antiviral activity against Murine leukemia virus (MuLV) strains using the UV-XC plaque assay (Rowe, et. al., Virology, 42:1136, 1970).
# The MuLV strains were grown in fetal mouse cells, (SC-1) and used for antiviral tests using the UV-XC plaque assay. Briefly, SC-1 cells are grown as monolayers in 4-well tissue culture plates and inoculated with approximately 50-100 plaque forming units of MuLV in 0.5 ml of 5% EMEM containing 20 μg/ml DEAE/Dextran. After 1 hr. adsorption, the inoculum is removed and 5 ml of 5% EMEM containing three-fold dilutions of the appropriate drug are added. Five days later, the cultures are UV-irradiated with an ultraviolet lamp and rat XC sarcoma cells are added to the cultures. Three to four days after UV-irradiation, the cell cultures are stained with Giemsa stain and the plaques are counted. Antiviral activity is expressed in terms of the reduction in the mean number of UV-XC plaques counted in the drug treated, virus-infected cultures compared with mean number of plaques counted in untreated, virus-infected control cultures. IC50 values are calculated by determining the concentration of compound necessary to reduce the number of plaques by 50% compared to those in the virus control cultures.
# [5] = tested on: HSV-1 (herpes simplex virus type 1, strain Schooler); test: HSV-1 plaque inhibition assay in WI-38 cells; type: cell-based; conditions: Human alphaherpesvirus 1, 96 h, 4 days
# Experimental: (§4) Additional assays were performed in cell culture systems to determine the concentrations of compounds that are effective in preventing several kinds of viral infections. In Tables III and IV, the anti-HIV results using CEM cells were obtained using the same protocol described earlier. Figures in parenthesis represent the observed TD50 in the HIV screens indicated. Abbreviations:
# (§5) HSV-1 (herpes simplex virus type 1, strain Schooler), HSV-2 (herpes simplex virus type 2, strain 186), VZV (varicella zoster virus, strain ELLEN), HCMV (human cytomegalovirus, strain AD 169 HIV (human immunodeficiency virus, strain HTLV-IIIB).
# (§6) Virus was adsorbed to WI-38 cell culture monolayers in 6 well culture plates (Costar, Cambridge, Mass.) for 1 hour prior to addition of maintenance medium containing duplicate dilutions of the test compound. Inhibition of plaque development was evaluated on fixed and stained monolayers after 4 days incubation at 37° C. for HSV-1 and HSV-2, and after 5-7 days incubation at 37° C. for HCMV and VZV. ID50 values were determined from the drug concentration which conferred at least a 50% plaque reduction compared to virus controls.
# [6] = tested on: HSV-2 (herpes simplex virus type 2, strain 186); test: HSV-2 plaque inhibition assay in WI-38 cells; type: cell-based; conditions: Human alphaherpesvirus 2, 96 h, 4 days
# Experimental: as §4, §5, §6
# [7] = tested on: HCMV (human cytomegalovirus, strain AD 169); test: HCMV plaque inhibition assay in WI-38 cells; type: cell-based; conditions: 5-7 days
# Experimental: as §4, §5, §6
# [8] = tested on: VZV (varicella zoster virus, strain ELLEN); test: VZV plaque inhibition assay in WI-38 cells; type: cell-based; conditions: 5-7 days
# Experimental: as §4, §5, §6
# [9] = tested on: phytopathogenic bacteria and fungi; conditions: Kusaka, et al., J. Antibiotics, (1968); cited from earlier work
# [10] = Herdewijn, et al., J. Med. Chem. (1985); cited from earlier work
# murine leukemia L1210 = conditions: in vitro; Herdewijn, et al., J. Med. Chem. (1985); cited from earlier work
# [11] = Herdewijn, et al., J. Med. Chem. (1985); cited from earlier work; remark: listed apart in the source
# [12] = Table III, racemic series, read-out: HSV-1 in vitro antiviral activity (ID50)
# [13] = Table III, racemic series, read-out: HSV-2 in vitro antiviral activity (ID50)
# [14] = Human betaherpesvirus 5, Table III, racemic series, read-out: HCMV in vitro antiviral activity (ID50)
# [15] = Human alphaherpesvirus 3, Table III, racemic series, read-out: VZV in vitro antiviral activity (ID50)
IC50 [1],IC50 [2],IC50 [4],Structure (SMILES),IC50 [3],further results
> 100 µg/mL,> 100 µg/mL,> 100 µg/mL,Nc1nc2c(ncn2C2CC(OCP(=O)(O)O)C(O)C2O)c(=O)[nH]1 (centres unmarked),4.5 µg/mL,
,22 µg/mL,,Nc1nc2c(ncn2C2CC(OCP(=O)(O)O)C(O)C2F)c(=O)[nH]1 (centres unmarked),0.36 µg/mL,
,> 100 µg/mL,> 100 µg/mL,Nc1ncnc2c1ncn2C1CC(OCP(=O)(O)O)C(O)C1O (centres unmarked),> 100 µg/mL,
13.5 µg/mL,> 50 µg/mL,5.1 µg/mL,Nc1nc2c(ncn2C2C=CC(OCP(=O)(O)O)C2)c(=O)[nH]1 (centres unmarked) [drawing 15],> 100 µg/mL,
> 116 µg/mL,> 82 µg/mL,0.84 µg/mL,Nc1ncnc2c1ncn2C1C=CC(OCP(=O)(O)O)C1 (centres unmarked) [drawing 24],> 100 µg/mL,
,> 100 µg/mL,,Nc1ncnc2c1ncn2C1CC(OCP(=O)(O)O)C(O)C1F (centres unmarked) [drawing 27],85 µg/mL,

# Further lines, the molecule ahead of its results:
Structure (SMILES),IC50 [1],IC50 [2],IC50 [4],IC50 [3],further results
Cc1cn(C2C=CC(OCP(=O)(O)O)C2)c(=O)[nH]c1=O (centres unmarked),> 140 µg/mL,> 134 µg/mL,,,
Nc1nc2c(ncn2C2CC(OCP(=O)(O)O)CC2F)c(=O)[nH]1 (centres unmarked),,,,,"IC50 [5, 12]: 10 to 25 µg/mL; IC50 [6, 13]: 10 to 25 µg/mL; IC50 [7, 14]: 10 to 25 µg/mL; IC50 [8, 15]: 10 to 33 µg/mL"
Nc1ncnc2c1ncn2[C@@H]1C[C@H](CO)[C@@H](O)[C@H]1O [aristeromycin],,,,,growth inhibitory activity against phytopathogenic bacteria and fungi [9]: growth inhibitory activity; cytotoxicity [10]: cytotoxic; activity against murine leukemia L1210 (murine leukemia L1210): active; antiviral activity [11]: has antiviral activity
Nc1nc2c(ncn2C2C=CC(OCP(=O)(O)O)C2)c(=O)[nH]1 (centres unmarked) [drawing 30],,,,,"IC50 [5, 12]: > 72 µg/mL; IC50 [6, 13]: > 72 µg/mL; IC50 [7, 14]: > 100 µg/mL; IC50 [8, 15]: 12 to 121 µg/mL"
Nc1ncnc2c1ncn2C1C=CC(OCP(=O)(O)O)C1 (centres unmarked) [drawing 33],,,,,"IC50 [5, 12]: > 100 µg/mL; IC50 [6, 13]: > 100 µg/mL; IC50 [7, 14]: > 100 µg/mL; IC50 [8, 15]: > 100 µg/mL"
Nc1ncnc2c1ncn2C1CC(OCP(=O)(O)O)C(O)C1F (centres unmarked) [drawing 67],,,,,"IC50 ([5]; Table IV, enantiomeric series (1R, 4S), read-out: HSV-1 in vitro antiviral data (ID50)): 10 to 25 µg/mL; IC50 ([6]; Table IV, enantiomeric series (1R, 4S), read-out: HSV-2 in vitro antiviral data (ID50)): 10 to 25 µg/mL; IC50 ([7]; Human betaherpesvirus 5, Table IV, enantiomeric series (1R, 4S), read-out: HCMV in vitro antiviral data (ID50)): > 100 µg/mL; IC50 ([8]; Human alphaherpesvirus 3, Table IV, enantiomeric series (1R, 4S), read-out: VZV in vitro antiviral data (ID50)): 5 to 10 µg/mL"
